Measured values published in PubChem BioAssay AID248 (DTP/NCI, 2004).
Several values for one entry are separate records, joined by “and”; a condition that tells them apart may be missing. Identical values can stand only once. Toxic doses and inconclusive results are not listed. Cut-off read from the data, not from the text of the source: active = T/C of 150% or more; inactive = T/C below 125%.

Tested on: L1210 leukemia ip in BDF1 mice, survival T/C
Experiment: NCI In Vivo Anticancer Drug Screen. Data for tumor model L1210 Leukemia (intraperitoneal) in B6D2F1 (BDF1) mice
Details: endpoint: mean survival time, higher = longer survival
In short: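 Value reflects the ratio of survival in compound-treated mice to survival in vehicle-treated controls, with both groups carrying the same transplanted tumor.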

[1] = dose: 50.0 mg/kg/injection, schedule: Q01DX001 (ip), vehicle: carboxymethylcellulose (CMC)
[2] = dose: 200.0 mg/kg/injection, schedule: Q01DX001 (ip), vehicle: carboxymethylcellulose (CMC)
[3] = dose: 400.0 mg/kg/injection, schedule: Q01DX001 (ip), vehicle: carboxymethylcellulose (CMC)
[4] = dose: 200.0 mg/kg/injection, schedule: Q01DX001 (ip), vehicle: saline
[5] = dose: 100.0 mg/kg/injection, schedule: Q04DX002 (ip), vehicle: Klucel (hydroxypropylcellulose) (HPC)
[6] = dose: 200.0 mg/kg/injection, schedule: Q04DX002 (ip), vehicle: Klucel (hydroxypropylcellulose) (HPC)
[7] = dose: 400.0 mg/kg/injection, schedule: Q04DX002 (ip), vehicle: Klucel (hydroxypropylcellulose) (HPC)

Measured: T/C

O=C(Nc1ccccc1)Oc1c(Cl)cc(Cl)cc1Cl
inactive: dose: 0.78 mg/kg/injection, schedule: Q04DX002 (ip), vehicle: Klucel (hydroxypropylcellulose) (HPC) 97 % of control | dose: 1.56 mg/kg/injection, schedule: Q04DX002 (ip), vehicle: Klucel (hydroxypropylcellulose) (HPC) 112 % of control | dose: 3.13 mg/kg/injection, schedule: Q04DX002 (ip), vehicle: Klucel (hydroxypropylcellulose) (HPC) 94 % of control | dose: 6.25 mg/kg/injection, schedule: Q04DX002 (ip), vehicle: Klucel (hydroxypropylcellulose) (HPC) 92 % of control | dose: 12.5 mg/kg/injection, schedule: Q04DX002 (ip), vehicle: Klucel (hydroxypropylcellulose) (HPC) 110 % of control | dose: 25.0 mg/kg/injection, schedule: Q04DX002 (ip), vehicle: Klucel (hydroxypropylcellulose) (HPC) 95 % of control

CN(N=O)C(=O)NN(C)C(=O)N(C)N=O
inactive: [1] 114 % of control | [2] 121 % of control | dose: 300.0 mg/kg/injection, schedule: Q01DX001 (ip), vehicle: carboxymethylcellulose (CMC) 114 % of control | [3] 121 % of control

CCCCCCCCCC/C=N\N=C(N)N
inactive: dose: 15.0 mg/kg/injection, schedule: Q01DX Z (ip), vehicle: other 107 % of control | dose: 15.0 mg/kg/injection, schedule: Q01DX Z (oral), vehicle: carboxymethylcellulose (CMC) 96 % of control | dose: 30.0 mg/kg/injection, schedule: Q01DX Z (ip), vehicle: other 97 % of control | dose: 30.0 mg/kg/injection, schedule: Q01DX Z (oral), vehicle: carboxymethylcellulose (CMC) 103 % of control | dose: 60.0 mg/kg/injection, schedule: Q01DX Z (oral), vehicle: carboxymethylcellulose (CMC) 96 % of control | dose: 120.0 mg/kg/injection, schedule: Q01DX Z (oral), vehicle: carboxymethylcellulose (CMC) 103 % of control

CN(N=O)C(=O)NCCc1ccccc1
inactive: dose: 6.25 mg/kg/injection, schedule: Q01DX Z (ip), vehicle: carboxymethylcellulose (CMC) 101 % of control | dose: 12.5 mg/kg/injection, schedule: Q01DX Z (ip), vehicle: carboxymethylcellulose (CMC) 112 % of control | dose: 25.0 mg/kg/injection, schedule: Q01DX Z (ip), vehicle: carboxymethylcellulose (CMC) 93 % of control | dose: 50.0 mg/kg/injection, schedule: Q01DX Z (ip), vehicle: carboxymethylcellulose (CMC) 98 % of control | dose: 100.0 mg/kg/injection, schedule: Q01DX Z (ip), vehicle: carboxymethylcellulose (CMC) 109 % of control | dose: 200.0 mg/kg/injection, schedule: Q01DX Z (ip), vehicle: carboxymethylcellulose (CMC) 98 % of control | dose: 400.0 mg/kg/injection, schedule: Q01DX Z (ip), vehicle: carboxymethylcellulose (CMC) 108 % of control

Cc1c2c(nn1Cc1ccccc1)C(=O)C=C(Nc1ccccc1)C2=O
inactive: dose: 50.0 mg/kg/injection, schedule: Q01DX001 (ip), vehicle: Klucel (hydroxypropylcellulose) (HPC) 99 % of control | dose: 100.0 mg/kg/injection, schedule: Q01DX001 (ip), vehicle: Klucel (hydroxypropylcellulose) (HPC) 99 % of control and 104 % of control | dose: 200.0 mg/kg/injection, schedule: Q01DX001 (ip), vehicle: Klucel (hydroxypropylcellulose) (HPC) 97 % of control and 111 % of control

CN(N=Nc1ccc(C(N)=O)cc1)C1CCCCC1
inactive: dose: 100.0 mg/kg/injection, schedule: Q01DX001 (ip), vehicle: other 91 % of control | dose: 200.0 mg/kg/injection, schedule: Q01DX001 (ip), vehicle: other 107 % of control

CN(C)N=Nc1ccc(C(=O)N/N=C/c2ccc(Cl)cc2)cc1
inactive: dose: 50.0 mg/kg/injection, schedule: Q04DX003 (ip), vehicle: Klucel (hydroxypropylcellulose) (HPC) 99 % of control | dose: 100.0 mg/kg/injection, schedule: Q04DX003 (ip), vehicle: Klucel (hydroxypropylcellulose) (HPC) 97 % of control | dose: 200.0 mg/kg/injection, schedule: Q04DX003 (ip), vehicle: Klucel (hydroxypropylcellulose) (HPC) 103 % of control

NNC(=O)NC(=O)NN
inactive: dose: 9.61 mg/kg/injection, schedule: Q01DX Z (ip), vehicle: carboxymethylcellulose (CMC) 103 % of control | dose: 19.23 mg/kg/injection, schedule: Q01DX Z (ip), vehicle: carboxymethylcellulose (CMC) 90 % of control | dose: 38.45 mg/kg/injection, schedule: Q01DX Z (ip), vehicle: carboxymethylcellulose (CMC) 95 % of control | dose: 76.9 mg/kg/injection, schedule: Q01DX Z (ip), vehicle: carboxymethylcellulose (CMC) 116 % of control | dose: 100.0 mg/kg/injection, schedule: Q01DX001 (ip), vehicle: saline 103 % of control | [4] 108 % of control

O=[N+]([O-])c1ccc(N2N=NC3CC/C(=C\c4cccs4)C32N2CCOCC2)cc1 (stereo unspecified)
inactive: [5] 93 % of control | [6] 101 % of control | [7] 90 % of control

O=C(O)c1ccccc1-c1ccccc1C(=O)Nc1ccc2c(c1)C(=O)c1ccccc1-2
inactive: dose: 100.0 mg/kg/injection, schedule: Q04DX003 (ip), vehicle: saline with Tween-80 104 % of control | dose: 200.0 mg/kg/injection, schedule: Q04DX003 (ip), vehicle: saline with Tween-80 101 % of control | dose: 400.0 mg/kg/injection, schedule: Q04DX003 (ip), vehicle: saline with Tween-80 98 % of control

Cc1ccc(C)c2c(Cl)c3c(C)ccc(C)c3nc12
inactive: dose: 100.0 mg/kg/injection, schedule: Q01DX009 (ip), vehicle: Klucel (hydroxypropylcellulose) (HPC) 98 % of control | dose: 100.0 mg/kg/injection, schedule: Q04DX003 (ip), vehicle: other 100 % of control | dose: 200.0 mg/kg/injection, schedule: Q01DX009 (ip), vehicle: Klucel (hydroxypropylcellulose) (HPC) 90 % of control | dose: 200.0 mg/kg/injection, schedule: Q04DX003 (ip), vehicle: other 97 % of control | dose: 400.0 mg/kg/injection, schedule: Q01DX009 (ip), vehicle: Klucel (hydroxypropylcellulose) (HPC) 96 % of control | dose: 400.0 mg/kg/injection, schedule: Q04DX003 (ip), vehicle: other 95 % of control

O=C(Nc1ccc(Br)cc1)c1nc(Br)[nH]c1Br
inactive: dose: 6.25 mg/kg/injection, schedule: Q01DX009 (ip), vehicle: saline with Tween-80 94 % of control | dose: 12.5 mg/kg/injection, schedule: Q01DX009 (ip), vehicle: saline with Tween-80 89 % of control | dose: 25.0 mg/kg/injection, schedule: Q01DX009 (ip), vehicle: saline with Tween-80 89 % of control

Cc1ccc(S(=O)(=O)OCC2OCOC2C2OCOC2C)cc1 (stereo unspecified)
inactive: dose: 100.0 mg/kg/injection, schedule: Q01DX001 (ip), vehicle: saline with Tween-80 104 % of control | dose: 200.0 mg/kg/injection, schedule: Q01DX001 (ip), vehicle: saline with Tween-80 93 % of control | dose: 400.0 mg/kg/injection, schedule: Q01DX001 (ip), vehicle: saline with Tween-80 97 % of control

O=C1OCC/C1=C/OCCCCO/C=C1/CCOC1=O
inactive: [5] 97 % of control | [6] 97 % of control | [7] 94 % of control

COc1cc(C(=O)NCCBr)cc(OC)c1OC
inactive: dose: 100.0 mg/kg/injection, schedule: Q04DX003 (ip), vehicle: saline 107 % of control | dose: 200.0 mg/kg/injection, schedule: Q04DX003 (ip), vehicle: saline 108 % of control | dose: 400.0 mg/kg/injection, schedule: Q04DX003 (ip), vehicle: saline 103 % of control

O=C1NCC/C1=C\c1cc2c(cc1[N+](=O)[O-])OCO2
inactive: [1] 88 % of control | dose: 100.0 mg/kg/injection, schedule: Q01DX001 (ip), vehicle: carboxymethylcellulose (CMC) 90 % of control | [2] 100 % of control | [3] 90 % of control

Nc1cc(Cl)ccc1NCCO
inactive: dose: 33.0 mg/kg/injection, schedule: Q01DX009 (ip), vehicle: saline 101 % of control | dose: 66.0 mg/kg/injection, schedule: Q01DX009 (ip), vehicle: saline 86 % of control | dose: 132.0 mg/kg/injection, schedule: Q01DX001 (ip), vehicle: saline 97 % of control and 111 % of control | dose: 132.0 mg/kg/injection, schedule: Q04DX003 (ip), vehicle: acetone 97 % of control | [4] 97 % of control and 105 % of control | dose: 300.0 mg/kg/injection, schedule: Q01DX001 (ip), vehicle: saline 100 % of control and 105 % of control
